Assay results taken from patent publication US20230346735A1, “Nutritional Composition Comprising Carnitine and Method for Treating or Preventing an Infection in a Mammal” (priority 2020, published 2023).
“Also recorded” adds a separate entry of the source. Marks after values point to notes of the source that are not given here.

Assays:
ACE-1 = assay: Human study, serum ELISA, ACE-1; type: in vivo; settings: 2 g daily L-carnitine tartrate, 5 weeks, before or after exercise challenge
Procedure: (§1) A human study was run with a total of 80 healthy male and female subjects ranging from 21 to 65 years of age, who were active (i.e. 30 minutes per day of moderate activity, 3 days per week) are randomized into two groups. […] Seventy-three subjects completed the trial and biomarker data were analyzed from the sera of the 73 completers. Sera were collected for analysis of C-Reactive Protein (CRP), ACE 1, ACE 2, TMPRSS 2, the Tumor Necrosis Factor alpha (TNF-alpha), and Furin at baseline in the beginning of the trial, at week 5 and 48 hr after an exercise challenge as described (Clinicaltrials.gov NCT04420377). The exercise challenge serves as surrogate to the inflammation stimulus.
(§2) To obtain human sera, venous blood was extracted by venipuncture of the antecubital vein using a 21-gauge syringe and collected into a 10 mL EDTA vacutainer tube (BD Vacutainer®, Becton, Dickinson and Company, Franklin Lakes, NJ) by a certified phlebotomist. […] Human ACE-1, ACE-2, TMPRSS2, Furin, CRP and TNF-alpha protein levels were assessed using commercially available ELISA kits, according the manufacturer recommendations, ACE-1 (R&D systems Inc., Minneapolis, MN, USA), ACE-2 (RayBiotech inc., Peachtree Corners, GA), TMPRSS2 (Novus Biologicals, Littleton, CO), CRP (R&D Systems Inc., Minneapolis, MN), TNF-alpha (Novus Biologicals, Littleton, CO), and Furin (Sigma Aldrich, St. Louis, MO). […]

SARS-CoV-2 = assay: microbe, parasite or virus in culture; type: cell-based
TMPRSS2 [1] = assay: Human study, serum ELISA, TMPRSS2; type: in vivo; settings: 2 g daily, 5 weeks, 48 hours after exercise challenge, versus placebo
Procedure: as §1, §2

malondialdehyde = assay: Antioxidant capacity: malondialdehyde in exercised rats; type: in vivo, rat; settings: 6 weeks
Procedure: (§3) Fifty-six (56) Male Wistar rats that were 8-week old were obtained. The rats were reared at the temperature of 22 ± 2° C., the humidity of 55 ± 5%, and with a 12-hrs light-12-hrs dark cycle. All procedures involving rats were conducted in strict compliance with the relevant laws, the Animal Welfare Act, Public Health Services Policy, and guidelines established by the Institutional Animal Care and Use Committee of the Institute of the contracted University which completed the study.
(§4) After a week of the adaptation period, the rats were divided into eight equal groups containing seven rats each. The initial body weights of the rats were similar in all the groups (214.53 grams ± 4.67; P > 0.05).
(§5) Groups 1 and 2 were not subjected to an exercise routine. Groups 3-8 were subjected to an exercise regimen consisting of a week training period with an incremental exercise capacity described below. After the week training period the exercise regimen followed was each rat in Groups 3-8 were subjected to 6 weeks of running at 25 m/min during 45 min […]. […] These correspond to 0, 250, 500, 1000, 2000 and 4000 mg per day for humans, respectively.
(§6) The exercised rats were subjected to treadmill exercise on a motorized rodent treadmill (Commat Limited, Ankara, Turkey). The treadmill contained a stimulus grid at the back end of the treadmill giving an electric shock when the animal placed its paw on the grid. […] To eliminate the diurnal variations, all exercise tests were applied during the same time of the day. The week of training period was provided as pre-training practice for the animals to get familiar with the treadmill equipment and handling. In doing so, the rats in the exercise training groups were accustomed by treadmill exercise over 5 days such that: (i) 1st day, 10 m/min for 10 min, (ii) 2nd day, 20 m/min for 10 min, (iii) 3rd day, 25 m/min for 10 min, (iv) 4th day, 25 m/min for 20 min and (v) 5th day, 25 m/min for 30 min. After the training period, the rats in treadmill exercise groups ran on the treadmill 25 m/min for 45 min/ per day and five days per week for 6 weeks according to the protocol described by Sahin et al. Capsaicinoids Improve the Consequences of Physical Activity. Toxicol Rep. 2018;5:598-607, which is hereby incorporated by reference.
(§7) The exercise regimen was used to induce an inflammation and oxidative stress conditions. […] The results of malondialdehyde, superoxide dismutase, catalase, and glutathione peroxidase for each rat group are shown in TABLE 2.

Furin = Furin mRNA expression in Calu-3, RT real-time PCR; type: cell-based, human; settings: Calu-3, 50 to 1,000 uM, 24 hr pre-treatment
ACE-2 = ACE-2 surface protein in Calu-3 cells, flow cytometry; type: cell-based, human; settings: Calu-3, 100 uM, 24-hr pre-treatment
Procedure: ACE-2 surface expression protein in Calu-3 cells was evaluated using FACS flow cytometry sorting. […] Cells were detached with PBS/EDTA at room temperature. FBS-containing growth media was added to cells to inactivate TE. Cells were spun for 5 min at […]. Supernatant was removed and cells were washed twice in flow buffer (PBS+0.2% FBS). Between 100,000-200,000 cells were stained for ACE-2 and BST2 (absent in Calu-3and used as a control) for 30 min on ice using goat anti-ACE-2 (R&D Systems; AF933) and PE-conjugated BST2 (BioLegend; Cat # 348406). Cells were washed once and stained with Alexa Fluor 647 donkey anti-goat for 30 min on ice. Cells were washed once, resuspended in PBS/EDTA and samples were acquired on a FACS LSR Fortessa cytometer (BD Bioscience). Data were analyzed using Flowjo (Version 10.1).
The testing was repeated with D-Carnitine as well. Cells were either stained for ACE2 using either anti-ACE2 Ab, anti-BST2 Ab or the combination or both followed by secondary Ab isotype. […] The table represents the fluorescence counts.

TMPRSS2 [2] = assay: Rat plasma serum ELISA, TMPRSS2; type: in vivo; settings: exercised rats, FIG. 5D
glutathione peroxidase = assay: Antioxidant capacity: glutathione peroxidase in exercised rats; type: in vivo, rat; settings: 6 weeks
Procedure: as §3, §4, §5, §6, §7

[3] = Car200: 200 mg/kg oral gavage, no exercise
[4] = Ex+Car25: exercise, 25 mg/kg oral gavage
[5] = Ex+Car50: exercise, 50 mg/kg oral gavage
[6] = Ex+Car100: exercise, 100 mg/kg oral gavage
[7] = Ex+Car200: exercise, 200 mg/kg oral gavage
[8] = Ex+Car400: exercise, 400 mg/kg oral gavage

C[N+](C)(C)C[C@H](O)CC(=O)[O-] [L-carnitine]
ACE-1 serum levels (ACE-1): no significant effect; also recorded: no significant interaction or main effect
virus growth (plaque assay) (SARS-CoV-2): successful at inhibiting virus growth
IC50 (SARS-CoV-2; Severe acute respiratory syndrome coronavirus 2, Calu-3, read-out: IC50, inhibition of Calu-3 infection): 139 µM
TMPRSS2 serum levels (TMPRSS2 [1]): significant decrease
MDA (malondialdehyde; [3]): 0.693±0.021^b µmol/L
MDA (malondialdehyde; [4]): 0.599±0.021^c µmol/L
MDA (malondialdehyde; [5]): 0.549±0.014^cd µmol/L
MDA (malondialdehyde; [6]): 0.553±0.018^cd µmol/L
MDA (malondialdehyde; [7]): 0.489±0.019^de µmol/L
MDA (malondialdehyde; [8]): 0.419±0.009^e µmol/L
Furin expression levels (Furin): did not show any effect
decrease in the ACE-2 protein at the cell surface (ACE-2): about 75%
serum TMPRSS2 (TMPRSS2 [2]): controlling TMPRSS2
GSHPx (glutathione peroxidase; [3]): 48.74±1.11^d U/mg protein
GSHPx (glutathione peroxidase; [4]): 49.75±1.08^d U/mg protein
GSHPx (glutathione peroxidase; [5]): 55.91±0.85^c U/mg protein
GSHPx (glutathione peroxidase; [6]): 59.57±0.68^bc U/mg protein
GSHPx (glutathione peroxidase; [7]): 62.58+1.03^b U/mg protein
GSHPx (glutathione peroxidase; [8]): 69.06±1.53^a U/mg protein
